Experimental data taken from patent US20220395549A1, “COMPOSITIONS OF THE OLEA EUROPAEA V. SYLVESTRIS WITH ANTIMICROBIAL EFFICACY” (TAPROGGE GMBH, priority 2019, published 2022).

Experiments:
[1] = solubility as encountered during the assays; type: physicochemical
Source text: The reduction at the later points in time is due to the natural loss of viability of the bacteria.

S. aureus ATCC 6538 = assay: quantitative suspension assay of mono-substances; type: cell-based, Staphylococcus aureus; conditions: for Number of CFUs: initial cell load 9.5 × 10^4 CFU/ml
Summary of the method: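 Hydroxytyrosol, uvaol and erythrodiol were tested at 2 mg/ml stock plus dilutions to 0.125 mg/ml (solvent methanol or chloroform, in water). Oleocanthal was tested at 1–0.125 mg/ml and oleacin at 0.25 and 0.125 mg/ml in ethanol/water. Inocula were ~100,000 CFU/ml at 20–25° C, sampled from 0 min to 72 h and plated on blood agar.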

- solubility [1]: poor solubility
Structure (SMILES): CC1(C)CC[C@]2(CO)CC[C@]3(C)C(=CC[C@@H]4[C@@]5(C)CC[C@H](O)C(C)(C)[C@@H]5CC[C@]43C)[C@@H]2C1 [erythrodiol]
- Number of CFUs (S. aureus ATCC 6538; 0.125 Ery/ml, t 0 min): >10^4 CFU/ml
- Number of CFUs (S. aureus ATCC 6538; 0.125 Ery/ml, t 12 min): >10^4 CFU/ml
- Number of CFUs (S. aureus ATCC 6538; 0.125 Ery/ml, t 30 min): >10^4 CFU/ml
- Number of CFUs (S. aureus ATCC 6538; 0.125 Ery/ml, t 60 min): >10^4 CFU/ml
- Number of CFUs (S. aureus ATCC 6538; 0.125 Ery/ml, t 24 h): >10^4 CFU/ml
- Number of CFUs (S. aureus ATCC 6538; 0.125 Ery/ml, t 48 h): >10^4 CFU/ml
- Number of CFUs (S. aureus ATCC 6538; 0.125 Ery/ml, t 72 h): >10^4 CFU/ml
- Number of CFUs (S. aureus ATCC 6538; 0.25 Ery/ml, t 0 min): 2.8 × 10^4 CFU/ml
- Number of CFUs (S. aureus ATCC 6538; 0.25 Ery/ml, t 12 min): 2.9 × 10^4 CFU/ml
- Number of CFUs (S. aureus ATCC 6538; 0.25 Ery/ml, t 30 min): 2.0 × 10^4 CFU/ml
- Number of CFUs (S. aureus ATCC 6538; 0.25 Ery/ml, t 60 min): 1.7 × 10^4 CFU/ml
- Number of CFUs (S. aureus ATCC 6538; 0.25 Ery/ml, t 24 h): >10^4 CFU/ml
- Number of CFUs (S. aureus ATCC 6538; 0.25 Ery/ml, t 48 h): >10^4 CFU/ml
- Number of CFUs (S. aureus ATCC 6538; 0.25 Ery/ml, t 72 h): >10^4 CFU/ml
- Number of CFUs (S. aureus ATCC 6538; 0.5 Ery/ml, t 0 min): 1.9 × 10^4 CFU/ml
- Number of CFUs (S. aureus ATCC 6538; 0.5 Ery/ml, t 12 min): 2.0 × 10^4 CFU/ml
- Number of CFUs (S. aureus ATCC 6538; 0.5 Ery/ml, t 30 min): 1.8 × 10^4 CFU/ml
- Number of CFUs (S. aureus ATCC 6538; 0.5 Ery/ml, t 60 min): 1.0 × 10^4 CFU/ml
- Number of CFUs (S. aureus ATCC 6538; 0.5 Ery/ml, t 24 h): >10^4 CFU/ml
- Number of CFUs (S. aureus ATCC 6538; 0.5 Ery/ml, t 48 h): >10^4 CFU/ml
- Number of CFUs (S. aureus ATCC 6538; 0.5 Ery/ml, t 72 h): >10^4 CFU/ml
- Number of CFUs (S. aureus ATCC 6538; 1.0 Ery/ml, t 0 min): <100 CFU/ml
- Number of CFUs (S. aureus ATCC 6538; 1.0 Ery/ml, t 12 min): <100 CFU/ml
- Number of CFUs (S. aureus ATCC 6538; 1.0 Ery/ml, t 30 min): <100 CFU/ml
- Number of CFUs (S. aureus ATCC 6538; 1.0 Ery/ml, t 60 min): <100 CFU/ml
- Number of CFUs (S. aureus ATCC 6538; 1.0 Ery/ml, t 24 h): 1.7 × 10^4 CFU/ml
- Number of CFUs (S. aureus ATCC 6538; 1.0 Ery/ml, t 48 h): 1.0 × 10^4 CFU/ml
- Number of CFUs (S. aureus ATCC 6538; 1.0 Ery/ml, t 72 h): 8.8 × 10^3 CFU/ml
- Number of CFUs (S. aureus ATCC 6538; 2.0 Ery/ml, t 0 min): <100 CFU/ml
- Number of CFUs (S. aureus ATCC 6538; 2.0 Ery/ml, t 12 min): <100 CFU/ml
- Number of CFUs (S. aureus ATCC 6538; 2.0 Ery/ml, t 30 min): <100 CFU/ml
- Number of CFUs (S. aureus ATCC 6538; 2.0 Ery/ml, t 60 min): <100 CFU/ml
- Number of CFUs (S. aureus ATCC 6538; 2.0 Ery/ml, t 24 h): 8.2 × 10^3 CFU/ml
- Number of CFUs (S. aureus ATCC 6538; 2.0 Ery/ml, t 48 h): <100 CFU/ml
- Number of CFUs (S. aureus ATCC 6538; 2.0 Ery/ml, t 72 h): <100 CFU/ml
- antimicrobial effect, summary in words (S. aureus ATCC 6538; detection limit of the assay 100 CFU/ml): strong effect after incubation at concentrations of 2.0 Ery/ml
